Earlier results in patent EP0763114B1, “HEPATITIS G VIRUS AND MOLECULAR CLONING THEREOF” (priority 1994, dated 1995).

System: HCV
Conditions: individuals infected with HCV, while ribavirin was administered

NC(=O)c1ncn([C@@H]2O[C@H](CO)[C@@H](O)[C@H]2O)n1 [ribavirin, 1-B-D-ribofuranosyl-1-2,4-triazole, 3-carboxamide]
serum levels of alanine aminotransferase (ALT): significant reductions | viral titer: significant reductions
